# Source: patent publication US3945994A, “Novel acid compounds” (Gist-Brocades N.V., priority 1973, dated 1976)
# Read-outs that look alike come from different tables or passages of the source.
# How the values were obtained:
# Type in all cases: cell-based
# [1] = test system: Staphylococcus aureus A 2001; settings: A2001, agar serial dilution, 24 hours at 37°C
# [2] = test system: Pseudomonas aeruginosa Wyeth A 1058; settings: WYETHA1058, agar serial dilution, 24 hours at 37°C
# [3] = test system: Klebsiella pneumoniae A 809; settings: A809, agar serial dilution, 24 hours at 37°C
# Salmonella dublin P 43 = settings: Salmonella enterica, P43; agar serial dilution, 24 hours at 37°C
# [4] = test system: Haemophilus influenzae A 1030; settings: A1030, agar serial dilution, 24 hours at 37°C
# [5] = test system: Salmonella typhimurium R 127; settings: Salmonella enterica, agar serial dilution, 24 hours at 37°C
# Proteus mirabilis H 3 = settings: H3, agar serial dilution, 24 hours at 37°C
# Proteus rettgeri A 821 [6] = settings: Providencia rettgeri, A821; agar serial dilution, 24 hours at 37°C
# Proteus morganii 2241 = settings: Morganella morganii, agar serial dilution, 24 hours at 37°C
# [7] = test system: Staphylococcus aureus A 355'; settings: agar serial dilution, 24 hours at 37°C
# [8] = test system: Pasteurella multocida A 723; settings: A723, agar serial dilution, 24 hours at 37°C
# [9] = test system: Staphylococcus aureus A 2000; settings: A2000, agar serial dilution, 24 hours at 37°C
# [10] = test system: Diplococcus pneumoniae L 54; settings: Streptococcus pneumoniae, L54; agar serial dilution, 24 hours at 37°C
# [11] = test system: Pseudomonas aeruginosa 2396; settings: agar serial dilution, 24 hours at 37°C
# [12] = test system: Streptococcus faecalis L 80; settings: Enterococcus faecalis, L80; agar serial dilution, 24 hours at 37°C
# Escherichia coli U 20 = settings: U20, agar serial dilution, 24 hours at 37°C
# Proteus mirabilis A 1200 = settings: A1200, agar serial dilution, 24 hours at 37°C
# [13] = test system: Pseudomonas aeruginosa H 10; settings: H10, agar serial dilution, 24 hours at 37°C
# [14] = test system: Streptococcus haemolyticus A 266; settings: A266, agar serial dilution, 24 hours at 37°C
# [15] = test system: Bacillus subtilis ATCC 6633; settings: ATCC6633, agar serial dilution, 24 hours at 37°C
# [16] = test system: Staphylococcus aureus A 321; settings: A321, agar serial dilution, 24 hours at 37°C
# [17] = test system: Haemophilus influenzae A 1030; assay: micro serial dilution test, MIC; settings: A1030, micro serial dilution (between brackets), 30°C or 37°C, about 18 hours
# [18] = test system: Salmonella typhimurium R172; settings: Salmonella enterica, agar serial dilution, 24 hours at 37°C
# Proteus rettgeri A 821 [19] = assay: micro serial dilution test, MIC; settings: Providencia rettgeri, A821; micro serial dilution (between brackets), 30°C or 37°C, about 18 hours
# [20] = test system: Streptococcus haemolyticus A 1088; settings: A1088, agar serial dilution, 24 hours at 37°C
# Proteus mirabilis H3 = assay: micro serial dilution test, MIC; settings: micro serial dilution (between brackets), 30°C or 37°C, about 18 hours
# Proteus mirabilis A1200 = assay: micro serial dilution test, MIC; settings: micro serial dilution (between brackets), 30°C or 37°C, about 18 hours
MIC [1] [µg/mL],MIC [2] [µg/mL],MIC [3] [µg/mL],MIC (Salmonella dublin P 43) [µg/mL],MIC (Proteus mirabilis H 3) [µg/mL],MIC (Proteus morganii 2241) [µg/mL],MIC [7] [µg/mL],MIC [8] [µg/mL],MIC [9] [µg/mL],MIC [10] [µg/mL],MIC [11] [µg/mL],MIC [12] [µg/mL],MIC (Escherichia coli U 20) [µg/mL],MIC (Proteus mirabilis A 1200) [µg/mL],MIC [13] [µg/mL],MIC [15] [µg/mL],MIC [16] [µg/mL],MIC [17] [µg/mL],MIC [18] [µg/mL],MIC (Proteus rettgeri A 821 [19]) [µg/mL],SMILES,other results
6,100,100,12.5,3,6,12.5,0.25,12.5,9,50,25,12.5,1.5,> 100,1,1.5,,,,"CCOC(=O)NNS(=O)(=O)NC(=O)N[C@@H](C(=O)N[C@@H]1C(=O)N2[C@@H]1SC(C)(C)[C@@H]2C(=O)O)c1ccccc1 [XV, D-6-[α-{3-(ethoxycarbonylhydrazinosulfonyl)-ureido}benzylcarbonamido]-penicillanic acid]",MIC [4]: 1.5 µg/mL; MIC [5]: 50 µg/mL; MIC (Proteus rettgeri A 821 [6]): 1 µg/mL; MIC [14]: 0.5 µg/mL
,> 100,100,25,50,25,,0.75,,0.75,100,3,100,25,> 100,0.12,1.5,1.8,100,0.6,"CC(=NS(=O)(=O)N[C@@H](C(=O)N[C@@H]1C(=O)N2[C@@H]1SC(C)(C)[C@@H]2C(=O)O)c1ccccc1)N(C)C [XXI, D-6-[α-{1-(dimethylamino)-ethylideneamino-sulfonamido}-benzylcarbonamido]-penicillanic acid]",MIC [14]: 0.12 µg/mL
3,> 100,> 100,50,50,50,6,0.5,6,0.5,> 100,1.5,100,12.5,> 100,0.12,1,125,100,0.9,"CN1CCCC1=NS(=O)(=O)N[C@@H](C(=O)N[C@@H]1C(=O)N2[C@@H]1SC(C)(C)[C@@H]2C(=O)O)c1ccccc1 [XXIII, D-6-[α-{1-(methylpyrrolidin-2-ylidene)-amino-sulfonamido}-benzylcarbonamido] -penicillanic acid]",MIC [14]: 0.06 µg/mL
6,12.5,12.5,6,6,12.5,6,0.5,6,50,25,12.5,6,3,100,0.5,,23,25,0.025,"CC1(C)S[C@@H]2[C@H](NC(=O)[C@H](NC(=O)NS(=O)(=O)NCc3ccccc3)c3ccccc3)C(=O)N2[C@H]1C(=O)O [XXXII, D-6-[α-{3-(benzylaminosulfonyl)-ureido}-benzylcarbonamido]-penicillanic acid]",MIC [20]: 0.25 µg/mL
3,25,> 100,1.5,,1.5,,0.25,3,0.5,25,25,1.5,,100,0.06,0.75,90,6,0.12,"CC1(C)S[C@@H]2[C@H](NC(=O)C(C(=O)O)c3ccccc3)C(=O)N2[C@H]1C(=O)O (stereo partly drawn) [carbenicillin, reference compound]",MIC (Proteus mirabilis H3): 0.6 µg/mL; MIC (Proteus mirabilis A1200): 0.45 µg/mL; MIC [20]: 0.25 µg/mL
0.5,> 100,1.5,1.5,6,25,1.5,1.5,0.75,0.25,> 100,12.5,1.5,6,> 100,0.25,0.25,,3,1.2,"Cc1nnc(SCC2=C(C(=O)O)N3C(=O)[C@@H](NC(=O)Cn4cnnn4)[C@H]3SC2)s1 [cephazolin, reference compound]",MIC [20]: 0.12 µg/mL
